Measured values: US12439914B2, “Bactrocera oleae attractant composition and uses thereof” (CEARITIS, priority 2020, dated 2025)

Test system: Bactrocera oleae
Assay: Attractiveness in glass Y-tube olfactometer (behavioural response of the olive fruit fly)
Assay type: in vivo
Conditions: 10 ng on filter paper vs dichloromethane control; individual female flies 8 to 30 days old; Y-tube choice
Procedure: The attractiveness of the active substances of the attractant composition according to the invention was evaluated using a glass Y-tube olfactometer (internal diameter 4.5 cm; length of the arm 22 cm; length of the main stem 24.5 cm). The assembly was placed in a lit room at 22° C. Screws held the Y-tube in an inclined position (angle of […] between the Y-tube and the horizontal plane). The Y-tube was placed in the centre of an artificially lit box (60×60×60 cm), covered with sheets on the outside in order to avoid external stimuli. The tubes at the end of the Y were connected to two glass adaptors, to which 30 ml glass flasks were attached, each containing a 1 cm^2 piece of filter paper. […]
Individual female flies—from 8 to 30 days old—were released one by one into the first cm of the base tube of the olfactometer using a manual aspirator. […] The air suction tube was connected to the glass Y-tube and the time until the flies reached the end of one of the arms of the Y was recorded. […]
In order to evaluate the attractiveness of one molecule vis-à-vis Bactrocera oleae, the data collected were analyzed with a khi2 statistical test on Excel and R. The p value, obtained in this test, indicates the probability of obtaining the same value if the null hypothesis was true. […]

Row | SMILES | Behavioural response obtained using the substance tested (expressed in %) [%]
1 | C=C1CC/C=C(\C)CC[C@@H]2[C@@H]1CC2(C)C [Beta-caryophyllene, beta-caryophyllene] | 70.00
2 | CCCCCCCCCC=O [Decanal, decanal] | 68.00
